We go through five substances from patent US20100004165A1, “Novel Protein Transduction Domains and Uses Therefor” (The Arizona Board of Regents, a body corporate acting on …, priority 2005, published 2010).

The test system of one data set is 3T3 fibroblasts. Description: Transduction of FITC-labeled peptides into 3T3 fibroblasts (fluorescence imaging). Format: cell-based. Particulars: 50 μM, 1 hour, media with or without serum. How it is done:
FITC-(b)[…] (SEQ ID NO: 37)(WLRRIKA (SEQ ID NO: 3) monomer), FITC-(b)[…] (SEQ ID NO: 38)(WLRRIKA (SEQ ID NO: 3) dimer), and FITC-(b)[…] (SEQ ID NO: 39)(WLRRIKA (SEQ ID NO: 3) trimer) were synthesized on a 0.2 mmol scale using Fmoc-based solid phase peptide synthesis. The peptides were solubilized in water to create 3 mM stock solutions. 3T3 fibroblasts, cultured in Dulbecco's Modified Eagle Medium (DMEM) with 2 mM glutamine, pen/strep antibiotic, and 10% fetal bovine serum (FBS), were seeded at a density of 50,000 cells per well (1 ml of 50,000 cells/ml) in 4-well chambered slides (4 slides were used). The slides were incubated at 37° C. with 5% CO2 in a humidified incubator for 4 hours to allow the cells to adhere to the slides. After 4 hours, each well was washed 3 times with phosphate buffered saline (PBS). 50 μl of a 3 mM stock of each peptide as well as a 3 mM stock of fluorescein in water were added to 15 ml tubes containing 3 ml of DMEM with 2 mM glutamine, antibiotic, and 10% FBS and to 15 ml tubes containing 3 ml of serum-free DMEM with 2 mM glutamine and antibiotic. Treatments were performed in duplicate for both serum-containing and serum-free DMEM. On each slide system, each well received media (either with or without serum) with fluorescein, WLRRIKA (SEQ ID NO: 3) monomer, WLRRIKA (SEQ ID NO: 3) dimer, or WLRRIKA (SEQ ID NO: 3) trimer. In all cases, the final peptide or fluorescein concentration was 50 μM per well. Once the treatments were added, the slides were incubated at 37° C. with 5% CO2 in a humidified incubator for 1 hour. Then, each well was washed with PBS 3 times. Following the PBS wash, 0.2 ml trypsin was added to each well to digest residual peptide bound to the outer cellular membranes, and the slides were incubated at 37° C. for 10 minutes. To inactivate the trypsin, 1 ml DMEM with serum was added to each well, and the slides were incubated for 4 hours to allow cells to reattach to the slides. After 4 hours, the cells were washed 3 times in PBS, and 1 ml of DMEM with serum was added to each well. Then, the slides were imaged using a 40× objective. […]

Data set [1] has as its system porcine ear skin. As to the kind of experiment: In vitro skin penetration and transdermal delivery, porcine ear skin in Franz diffusion cell, spectrofluorimetry (Example 3). Particulars: up to 8 hours post-application. How it is done: Fluorescence microscopy was used to visualize the peptides in different skin layers.
Formulations: Except in the experiments involving chemical penetration enhancers, FITC-labeled peptides were dissolved in phosphate-buffered saline (PBS, 10 mM, pH 7.2); the peptide concentration was 100 μM. In the experiment involving penetration enhancers, PBS could not be used as a solvent because of the lipophilic nature of monoolein and oleic acid. Propylene glycol was used as a solvent, since it solubilizes both lipids and peptides. […] The formulations were prepared by mixing monoolein or oleic acid with propylene glycol and adding the peptides to the system immediately thereafter.
Porcine ear skin was used as model skin for in vitro skin penetration studies because of its similarity with human skin, especially regarding histological and biochemical properties and permeability to drugs (33). Freshly excised porcine ears were obtained from a local abattoir. The skin from the outer surface of the ear was carefully dissected; making sure that the subcutaneous fat was maximally removed (34). Maximum care was taken to maintain the integrity of the skin, which was assured by histology. The cleaned porcine ear skin was immediately mounted in a Franz diffusion cell (diffusion area of 1 cm^2; Laboratory Glass Apparatus, Inc, Berkeley, Calif., USA), with the stratum corneum facing the donor compartment (where the formulation was applied) and the dermis facing the receptor compartment, which was filled with PBS (100 mM, pH 7.2, 3 mL). The receptor phase was maintained at 37° C. and under constant stirring. To achieve higher reproducibility, the skin samples were equilibrated to the diffusion cell conditions for 30 minutes before application of any formulation.
PBS solutions or propylene glycol formulations of the peptides (70 μL each) were applied to the skin surface (donor compartment). […] The concentrations of FITC-P20 (SEQ ID NO: 9), FITC-YARA-P20 (SEQ ID NO: 42), and FITC-TAT-P20 (SEQ ID NO: 43) in the skin and receptor phase were determined at 0.5, 1, 2, 4, and 8 hour post-application.
At the end of the experiment, skin surfaces were thoroughly washed with distilled water to remove excess formulation and carefully wiped with a tissue paper. To separate the stratum corneum (SC) from the remaining epidermis (E) and dermis (D), the skin was subjected to tape stripping. The skin was stripped with 15 pieces of adhesive tape (3M, St. Paul, Minn., USA), and the tapes containing the SC were immersed in 3 mL of a water:methanol (1:1 v/v) solution, vortexed for 2 min, and bath sonicated for 30 minutes. The remaining [E+D] was cut in small pieces, vortexed for 2 minutes in 2 mL of a water:methanol (1:1 v/v) solution, and homogenized using a tissue grinder for 1 minute and bath sonication for 30 minutes. The resulting mixture was centrifuged for 1 minute. The peptide present in the receptor phase was concentrated (10×) as follows. Samples (2 mL) of the receptor phase were lyophilized for 24 hours, and the residue was dissolved in 200 μL of a hidroalcoholic (20% of ethanol) solution.
All solutions were subjected to fluorimetry analysis using a Gemini SpectraMax™ platereader (Molecular Devices, Sunnyvale, Calif., USA) with excitation at 495 nm and emission at 518 nm. […] To evaluate the recovery of the peptides from the skin in the extraction procedure, tissues sections (1 cm^2) were spiked with 20 μL of 0.2 and 0.5 mM solutions of the peptides. The skin sections were homogenized using a tissue grinder, vortex-mixer, and bath sonicator, as described above. […] We accounted for such a recovery percentage in the quantification of peptides.

Data set [2] concerns porcine ear skin. As to the kind of experiment: Fluorescence microscopy of skin sections after peptide application. Particulars: 4 hours post-application. The source says:
The skin sections (8 μm) were mounted on glass slides. The slides were visualized without any additional staining or treatment through a 20× objective using a Zeiss microscope (Carl Zeiss, Thornwood, N.Y., USA) equipped with a filter for FITC and AxioVision software.

Data set [3] has as its system connective tissue growth factor (CTGF). Description: TGFβ1-induced CTGF expression in human keloid fibroblasts (immunoblot). Type of data set: cell-based. Particulars: 24 hours; for reduction of CTGF expression compared to TGFβ1 treatment: 50 μM peptide. The protocol:
As a key marker of the anti-fibrotic activity of HSP20 peptides, we have previously examined expression levels of connective tissue growth factor (CTGF) in human keloid fibroblasts after stimulation with transforming growth factor beta 1 (TGFβ1). Cells were grown in 10 cm^2 dishes to 70% confluence in DMEM with 10% fetal bovine serum (FBS) and additional penicillin and streptomycin (1%), at 37° C. and 10% CO2. Cells were serum starved in DMEM containing 0.5% FBS for 48 hours before the experiment. Cells were either untreated (control) or treated with TGFβ1 (2.5 ng/mL) in the presence or absence of WL-P20 (SEQ ID NO: 10) phosphopeptide ([…]p[…], where pS is phosphoserine) (10 or 50 μM) for 24 hours. At the end of the experiment, cells were rinsed with PBS, and homogenized using urea-dithiothreitol-chaps (UDC) buffer. Lysates were mixed, centrifuged (6000×g) for 20 minutes, and the supernatant was used for determination of protein expression. Samples (20 μg of protein) were loaded on 15% SDS-PAGE gels, and the proteins were electrophoretically transferred to Immobilon membranes. Immunoblotting with CTGF antibodies was used in conjunction with near infrared detection antibodies to determine CTGF expression (Odyssey Li-Cor, Lincoln, Nebr.). Loading differences were corrected for by normalizing to GAPDH expression
(§1) Human keloid fibroblasts were serum-starved in DMEM medium containing 0.5% FBS for 48 hours, and treated with 2.5 ng/mL of TGF-betal for 24 hours and concomitantly treated with the WL-20 (SEQ ID NO: 10) (10 or 50 μM) for 24 hours. The Western blot bands were quantified by densitometry, and CTGF and collagen expression were related to GAPDH expression to correct for loading differences. The expression of CTGF and collagen in control cells was set to 1 for comparison of different blots.

The subject of data set [4] is primary rat astrocyte cells. As to the kind of experiment: Transduction across cell membranes in primary rat astrocyte cells. Type of data set: cell-based. How it is done: The in vitro model used to assess transduction across cell membranes was primary rat astrocyte cells. Cells were isolated as described (Innocenti et. al., J. Neurosci. 20:1800-1808, 2000), seeded at ˜3×10^4 cells/cm^2, and cultured in full serum (10% FBS in α-MEM) overnight. Some cells were serum starved by culturing in 0.5% FBS for 1-24 hours prior to treatment with transduction peptides.

Data set [5] has as its system porcine ear skin. As to the kind of experiment: Ex vivo skin transduction, porcine ear skin in modified Franz diffusion cell (Example 2). Format: in vitro ADME. Particulars: for skin penetration: 100 uM, conjugated or alone (FIG. 1, Panel C). The protocol: The ex vivo model selected for skin transduction studies was freshly excised porcine ears. […] The system was maintained at 37° C. and under constant stirring. […] The amount of peptides that permeated across the skin was determined in the receptor phase; 1.5 mL of the receptor phase was withdrawn, lyophilized and the residue was suspended in 150 μL of water. […] Standard curves of the peptides were used as reference.

The next data set relates to anal canal. Particulars: 1 mM in K-Y Jelly, 4 hours. The protocol:
(§2) Peptide was applied to both the vagina and anal canal using an applicator and allowed to penetrate for 4 hours. Tissue was excised and embedded in frozen tissue embedding medium (HistoPrep) for cryosectioning. Sections were mounted in anti-fade reagent and examined using fluorescence microscopy (Zeiss Axiovert).

In the next data set the test system is vagina. Particulars: 1 mM in K-Y Jelly, 4 hours. The protocol:
as §2

The subject of the next data set is Rat aorta. As to the kind of experiment: Vasorelaxation of rat aorta rings pre-contracted with KCl (muscle bath). How it is done: Rat aorta was isolated and dissected free from connective and fat tissue. Transverse rings, 3.0 mm in width, were cut and tied to silk suture. The tissue was suspended in a muscle bath containing a bicarbonate buffer (120 mM NaCl, 4.7 mM KCl, 1.0 mM MgSO4, 1.0 mM NaH2PO4, 10 mM glucose, 1.5 mM CaCl2, and 25 mM […], pH 7.4) and equilibrated with 95% O2/5% CO2 at 37° C. The rings were fixed at one end to a stainless steel wire and attached to a force transducer in muscle perfusion system (Radnotti). The rings were then progressively stretched, and the isometric force generated in response to 110 mM KCl (with equimolar replacement of NaCl in bicarbonate buffer) was determined until the consistent maximal force was produced. Agonists and peptide was added directly to the baths. Tissue that was pre-contracted with 110 mM potassium chloride (KCl) followed by 1.0 mM WL-P20 ([…]p[…], pS is phosphoserine) (SEQ ID NO: 10), where pS is phosphoserine) relaxed compared to untreated control (13% relaxation at 10 minutes, 50% relaxation at 30 minutes, and maximum 88% relaxation at ˜60 minutes, FIG. 4). Percent relaxation was calculated relative to maximum force generated with KCl. […] Such a difference may result from different mechanisms of penetration and/or intracellular localization.

The next data set relates to collagen. As to the kind of experiment: TGFβ1-induced collagen expression in human keloid fibroblasts (Western blot). Type of data set: cell-based. Particulars: 10 or 50 μM, 24 hours. The protocol: as §1
(A western blot detects proteins with antibodies after separation by electrophoresis.)

Square brackets hold non-standard residues; d marks the D form. Ends that are not written are not given here. * marks the point of attachment. FITC = O=C1OC2(c3ccc(O)cc3Oc3cc(O)ccc32)c2ccc(NC(=S)*)cc21; pS = N[C@@H](COP(=O)(O)O)C(=O)O; βAla = NCCC(=O)O

Take “FITC-(b)AWLRRIKA ({FITC}-[βAla]WLRRIKA) [WLRRIKA monomer]”: the “fluorescence within the cells (ability to penetrate the cells)” value (“fluorescence within the cells” for short) with 3T3 fibroblasts is “not able to penetrate the cells”.
With “WLRRApSAPLPGLK (WLRRA[pS]APLPGLK; also: FITC label) [P20, fragment of HSP20, cargo peptide, pS is phosphoserine]”, in the data set with porcine ear skin [1], the “permeation across the skin, in words” value is “did not permeate across the skin at all”. The “localisation of fluorescence in skin layers” value in the data set with porcine ear skin [2] is recorded as “fluorescence was found only in the SC”. For the same substance, the “reduction of CTGF expression compared to TGFβ1 treatment” value in [3] is recorded as 30%.
For WLRRIKAWLRRIKAWLRRIKA [W3], the “fluorescence within the cells” value with 3T3 fibroblasts was “bright fluorescence within the cells”. In [4] (50 μM), the transduction result is “efficient transduction”. Moreover, the persistence of transduction entry in data set [4] (50 μM for 1 h) is on record as “at least 24 hours”. For the same substance, the “carrying of non-covalently bound P20 across the skin” value with porcine ear skin [5] (100 uM transduction domain, non-covalently bound (FIG. 1, Panel A)) was “did not carry P20”. Moreover, in the data set on porcine ear skin [5], the skin penetration result is recorded as “significantly enhanced”. In the data set with porcine ear skin [5] (1 mM W3 used to carry P20 (FIG. 1, Panel B)), the “skin penetration [E+D] of non-covalently bound P20” value is reported as “significant skin penetration”.
Consider “WLRRIKAWLRRApSAPLPGLK (WLRRIKAWLRRA[pS]APLPGLK) [WL-P20]”, for which, in data set [4], the “time of maximal transduction” value is recorded as “approximately 20 minutes”. The transduction entry is reported as “no transduction” in [4] (1 μM), “slightly reduced transduction” in [4] (25 μM) and “efficient transduction” in data set [4] (50 μM). In the data set with porcine ear skin [5], the skin penetration result is “significantly enhanced”. Besides, the “fluorescence in the anal canal” value with anal canal is recorded as “only minimal fluorescence”. In the data set with vagina, the “mucosal penetration in the vagina” value is “Mucosal penetration in the vagina was achieved”. In the data set with Rat aorta, the “time of maximum relaxation” value was roughly 60 min. For the same substance, the “maximum relaxation relative to maximum force generated with KCl” value with Rat aorta (1.0 mM peptide, 110 mM KCl pre-contraction) is listed as 88%. For the same substance, the “relaxation relative to maximum force generated with KCl” value was 13% in the data set on Rat aorta (1.0 mM peptide, 110 mM KCl pre-contraction, at 10 minutes) and 50% in the data set on Rat aorta (1.0 mM peptide, 110 mM KCl pre-contraction, at 30 minutes). The “reduction of CTGF expression compared to TGFβ1 treatment” value in data set [3] was found to be 46%. For the same substance, the “effect on TGFβ1-induced CTGF expression” value in data set [3] (10 or 50 μM) was “inhibits”. Moreover, the “effect on TGFβ1-induced collagen expression” value in the data set with collagen is recorded as “inhibits”.
Regarding FITC-(b)AWLRRIKAWLRRIKA [WLRRIKA dimer], the “fluorescence within the cells” value in the data set on 3T3 fibroblasts is “bright fluorescence within the cells”.
